The source of these data is patent US4777049A, “Constant release system with pulsed release” (priority 1987, dated 1988).

For one data set, the system named is gonadotropin secretion. The following applies: Drugs, Vol. 23, 207-226, 1982, cited from earlier work.
The conditions of data set [1]: cited from earlier work.

In brackets after ≈: the same amount, converted by molar mass. Where two headings read alike, the source gives them in different places.

On to `C[C@]12CC[C@@H]3c4ccc(O)cc4CC[C@H]3[C@@H]1CC[C@@H]2O` [estradiol], for which the “effect on gonadotropin secretion” value in the data set on gonadotropin secretion (high pulsed doses) was “stimulates the ovulating surge”; with gonadotropin secretion (low pulsed dose), “inhibits”. As for `CO[C@H]1/C=C/O[C@@]2(C)Oc3c(C)c(O)c4c(O)c(c(/C=N/N5CCN(C)CC5)c(O)c4c3C2=O)NC(=O)/C(C)=C\C=C\[C@H](C)[C@H](O)[C@@H](C)[C@@H](O)[C@@H](C)[C@H](OC(C)=O)[C@@H]1C` [rifampicin], the “medical effect of pulsed treatment” value in data set [1] (leprosy) was “beneficial medical effect”.

As to `CC[C@H](C)[C@@H]1NC(=O)[C@H](Cc2ccc(O)cc2)NC(=O)[C@@H](N)CSSC[C@@H](C(=O)N2CCC[C@H]2C(=O)N[C@@H](CC(C)C)C(=O)NCC(N)=O)NC(=O)[C@H](CC(N)=O)NC(=O)[C@H](CCC(N)=O)NC1=O` [oxytocin], the “medical effect of pulsed treatment” value in data set [1] (induction of labor) was “beneficial medical effect”. For `C[C@H]1C[C@@H]2[C@H]([C@@H](O)C[C@@]3(C)[C@H]2CC[C@]3(O)C(=O)CO)[C@@]2(C)C=CC(=O)C=C12` [methylprednisolone], the “medical effect of pulsed treatment” value in data set [1] (collagenic and progressing glomerulonephritis) is listed as “beneficial medical effect”. For insulin, in data set [1] (control of hyperglycemia), the “medical effect of pulsed treatment” value is “beneficial medical effect”. By solubility is commonly meant how much of the substance goes into solution per volume. Consider `CC(C)(C)NCC(O)c1ccc(O)c(CO)c1` (centres unmarked) [salbutamol], for which the solubility in the data set “physchem” (distilled water, water) was 275 mg/mL (≈ 1150 mM); in the data set “physchem” (saturated sodium chloride solution) it was 16 mg/mL (≈ 66.9 mM).
